Measurements from PMC10447463, “Data-mining unveils structure–property–activity correlation of viral infectivity enhancing self-assembling peptides” (Nature Communications, 2023).
Like-named read-outs stand apart in the source and are kept apart here.

Key:
[1] = Conversion rate (CR) assay with fluorescamine; format: physicochemical; parameters: key to CR: % = 100−100×filtrate/original fluorescence intensity; details: conversion rate, fluorescamine assay; for CR / %: Fig. S7 panel B
Method: For ATR FT–IR spectroscopy measurements, 200 µL of the respective 1 mg/mL PNF solution was lyophilized and the resulting powder used for measurement. All spectra were recorded on a Bruker Tensor 27 spectrometer with a diamond crystal as ATR element (PIKE MiracleTM, spectral resolution 2 cm^-1). Every sample was measured with 64 scans. Data were analyzed with OriginLab software and calculation of β–sheet content was conducted according to a previous report. TEM. For TEM measurements 5 µL of PNF fibrils (1 mg/mL) were placed on copper grids coated with carbon and formvar layer (300 mesh, Plano GmbH). After 10 min incubation time, the grids were staining with 4% uranyl acetate solution for 2.5 min and washed with water. Measurements were performed on a Jeol 1400 electron microscope with 120 kV acceleration voltage. CR Assay. For the determination of the amount of peptide monomer converting into nanostructures the amine reactive dye fluorescamine was used analogous to a previous reported protocol. Briefly, 100 µL of the preformed PNF solution was centrifuged in a Vivaspin 500 tube (3 kDa MWCO) to separate fibers from free peptide monomer (16200 x g, 4 °C, 45 min). The filtrate and 100 μL of the non-filtered PNF sample were lyophilized and dissolved in 30 μL DMSO. 10 μL of the filtrate and non-filtered DMSO samples were submitted in a black UV Star® 384 microliter well–plates (Greiner bio–one) and 3 μL of the fluorescamine solution (10 mg/mL, DMSO) was added to measure the fluorescence enhancement. After 20 min of incubation at RT, fluorescence was recorded on an Infinite® M1000 PRO microplate reader (Tecan) at λem = 470 nm upon excitation at λex = 365 nm with 10 nm bandwidths and multiple reads per well (3×3). Measurements were repeated in triplicates and averaged with standard deviation. All values were calculated as n-fold fluorescence enhancement (DMSO only as a reference was set to 1). The conversion rate CR was defined according to the equation Eq. (3).3 CR=100−100×fluorescenceintensityfiltrate/fluorescenceintensityoriginal[%]

[2] = format: physicochemical; details: for ThT Cat. / ThT-Fluorescence (categorical): ThT-active if fluorescence at least twice the control
Summary of the method: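 Fibrils (1 mg/mL solution) were mixed with 50 µM ThT in PBS for 15 min at RT, and fluorescence was read at λex 440/λem 488 nm against a PBS blank, as a triplicate mean ± SD. Zeta potential came from electrophoretic mobility (Smoluchowski) after 1 d aggregation at 1 mg/mL in PBS pH 7.4, diluted into 1 mM KCl.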

[3] = ThT fluorescence category, 1 if Rel. ThT >2

| Substance | CR / % [1] [%] | CR [1] | Tht category (> 2 to blank = +) ([2]; Fig S10 panel D) | ThT Cat. ([2]; Fig S10 panel E) | ThT Cat, ([2]; ThT category, 1 if Rel. ThT >2) | ThT Cat. [2, 3] | ThT Cat. / ThT-Fluorescence (categorical) [2] | ThT Cat. ([2]; ThT category, 1 if Rel. ThT >2) | Tht category (> 2 to blank = +) ([2]; FigS12 panel A) | ThT Cat, ([2]; FigS12 panel B) |
| --- | --- | --- | --- | --- | --- | --- | --- | --- | --- | --- |
| CKIKIQINM | 75.5 | 75.5 | 1 (ThT. Cat is 1, if Rel. ThT >2) | 1 (ThT. Cat is 1, if Rel. ThT >2) | 1 (ThT. Cat is 1, if Rel. ThT >2) | 1 (ThT. Cat is 1, if Rel. ThT >2) | 1 (ThT. Cat is 1, if Rel. ThT >2) |  |  |  |
| CKFKFQFW | 98.7 | 98.71 | 0 (ThT-inactive (N-Fold <2)) | 0 (ThT-inactive (N-Fold <2)) | 0 (ThT-inactive (N-Fold <2)) |  | 0 (ThT-inactive (N-Fold <2)) | 0 (ThT-inactive (N-Fold <2)) |  |  |
| RGDKIKIQINMC | 60 | 60 |  |  | 0 (ThT-inactive (N-Fold <2)) | 0 (ThT-inactive (N-Fold <2)) | 0 (ThT-inactive (N-Fold <2)) |  |  |  |
| KIKQII | 13 | 12.97 | 0 (ThT-inactive (N-Fold <2)) | 0 (ThT-inactive (N-Fold <2)) | 0 (ThT-inactive (N-Fold <2)) | 0 (ThT-inactive (N-Fold <2)) | 0 (ThT-inactive (N-Fold <2)) |  | 0 (ThT-inactive (N-Fold <2)) | 0 (ThT-inactive (N-Fold <2)) |
| CKFKQFF | 90 | 90.05 | 0 (ThT-inactive (N-Fold <2)) | 0 (ThT-inactive (N-Fold <2)) | 0 (ThT-inactive (N-Fold <2)) |  | 0 (ThT-inactive (N-Fold <2)) | 0 (ThT-inactive (N-Fold <2)) | 0 (ThT-inactive (N-Fold <2)) | 0 (ThT-inactive (N-Fold <2)) |
